# Biological target: PRC2 complex (EZH2 Y641F/EED/SUZ12/RbAp48/AEBP2) (Homo sapiens (Human), UniProt Q15910, Y641F)
# Test: Activity of a compound to PRC2 complex (EZH2 Y641F), HTRF
# Details: not given
# Sequence of PRC2 complex (EZH2 Y641F/EED/SUZ12/RbAp48/AEBP2) (Q15910 whole entry Y641F): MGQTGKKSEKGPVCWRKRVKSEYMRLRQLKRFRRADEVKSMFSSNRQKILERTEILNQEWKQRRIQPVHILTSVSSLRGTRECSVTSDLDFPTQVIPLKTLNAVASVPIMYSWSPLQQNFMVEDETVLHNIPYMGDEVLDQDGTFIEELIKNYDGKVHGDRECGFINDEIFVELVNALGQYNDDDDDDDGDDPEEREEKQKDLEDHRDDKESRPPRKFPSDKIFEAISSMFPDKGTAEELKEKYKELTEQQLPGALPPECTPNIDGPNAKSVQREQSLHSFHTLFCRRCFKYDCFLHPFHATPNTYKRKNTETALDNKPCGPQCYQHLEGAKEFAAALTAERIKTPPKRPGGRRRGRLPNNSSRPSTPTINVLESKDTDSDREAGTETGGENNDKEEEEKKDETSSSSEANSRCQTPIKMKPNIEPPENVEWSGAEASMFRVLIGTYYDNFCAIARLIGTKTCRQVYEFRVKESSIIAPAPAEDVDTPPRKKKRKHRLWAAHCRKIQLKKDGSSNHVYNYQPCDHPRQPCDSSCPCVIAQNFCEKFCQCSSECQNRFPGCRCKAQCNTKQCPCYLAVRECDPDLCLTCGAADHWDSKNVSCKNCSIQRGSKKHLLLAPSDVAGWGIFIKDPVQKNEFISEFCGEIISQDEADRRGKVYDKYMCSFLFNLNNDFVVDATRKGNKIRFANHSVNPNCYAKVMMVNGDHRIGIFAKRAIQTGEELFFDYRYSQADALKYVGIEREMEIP
# Sequence of PRC2 complex (EZH2 Y641F/EED/SUZ12/RbAp48/AEBP2) (O75530 whole entry partner): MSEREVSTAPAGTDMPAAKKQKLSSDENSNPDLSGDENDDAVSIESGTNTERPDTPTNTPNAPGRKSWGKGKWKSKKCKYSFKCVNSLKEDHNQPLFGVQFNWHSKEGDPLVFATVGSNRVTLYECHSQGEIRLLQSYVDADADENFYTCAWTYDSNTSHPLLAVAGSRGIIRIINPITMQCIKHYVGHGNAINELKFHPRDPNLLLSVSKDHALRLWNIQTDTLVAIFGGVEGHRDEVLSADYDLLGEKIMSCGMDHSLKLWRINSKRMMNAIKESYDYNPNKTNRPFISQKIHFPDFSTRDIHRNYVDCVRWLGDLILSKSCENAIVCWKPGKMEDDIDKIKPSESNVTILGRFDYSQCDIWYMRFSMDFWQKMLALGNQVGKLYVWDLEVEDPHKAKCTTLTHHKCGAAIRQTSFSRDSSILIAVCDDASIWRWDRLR
# Sequence of PRC2 complex (EZH2 Y641F/EED/SUZ12/RbAp48/AEBP2) (Q15022 whole entry partner): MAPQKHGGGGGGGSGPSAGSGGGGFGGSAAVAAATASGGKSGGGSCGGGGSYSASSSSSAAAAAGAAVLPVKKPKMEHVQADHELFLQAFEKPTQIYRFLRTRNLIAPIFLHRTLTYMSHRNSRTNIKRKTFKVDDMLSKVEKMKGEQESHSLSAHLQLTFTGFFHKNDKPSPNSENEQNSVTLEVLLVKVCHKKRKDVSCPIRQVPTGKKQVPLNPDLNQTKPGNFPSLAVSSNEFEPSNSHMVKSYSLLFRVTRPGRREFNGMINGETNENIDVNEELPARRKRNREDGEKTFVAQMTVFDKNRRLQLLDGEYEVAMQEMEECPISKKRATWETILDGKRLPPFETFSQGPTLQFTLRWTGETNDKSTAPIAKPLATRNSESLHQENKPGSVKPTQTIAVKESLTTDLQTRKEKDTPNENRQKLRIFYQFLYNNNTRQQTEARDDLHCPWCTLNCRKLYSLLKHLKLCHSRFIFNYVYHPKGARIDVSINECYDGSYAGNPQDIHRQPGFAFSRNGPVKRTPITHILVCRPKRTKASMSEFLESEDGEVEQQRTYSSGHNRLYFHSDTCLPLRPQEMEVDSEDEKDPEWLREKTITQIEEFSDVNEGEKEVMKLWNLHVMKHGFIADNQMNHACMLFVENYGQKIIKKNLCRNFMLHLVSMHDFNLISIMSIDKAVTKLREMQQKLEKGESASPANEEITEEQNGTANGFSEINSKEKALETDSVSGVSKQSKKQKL
# Sequence of PRC2 complex (EZH2 Y641F/EED/SUZ12/RbAp48/AEBP2) (Q09028 whole entry partner): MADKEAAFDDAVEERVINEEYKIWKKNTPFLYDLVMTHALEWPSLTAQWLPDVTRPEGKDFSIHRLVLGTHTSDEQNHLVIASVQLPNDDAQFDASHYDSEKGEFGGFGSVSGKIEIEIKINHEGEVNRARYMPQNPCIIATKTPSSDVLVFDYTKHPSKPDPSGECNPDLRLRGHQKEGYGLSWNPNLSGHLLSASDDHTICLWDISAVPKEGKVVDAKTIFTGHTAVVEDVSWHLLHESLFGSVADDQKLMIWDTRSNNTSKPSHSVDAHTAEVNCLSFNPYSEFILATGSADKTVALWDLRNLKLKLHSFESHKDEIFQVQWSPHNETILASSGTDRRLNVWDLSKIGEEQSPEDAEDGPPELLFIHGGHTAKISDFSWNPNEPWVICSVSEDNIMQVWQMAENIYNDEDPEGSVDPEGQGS
# Sequence of PRC2 complex (EZH2 Y641F/EED/SUZ12/RbAp48/AEBP2) (Q6ZN18 whole entry partner): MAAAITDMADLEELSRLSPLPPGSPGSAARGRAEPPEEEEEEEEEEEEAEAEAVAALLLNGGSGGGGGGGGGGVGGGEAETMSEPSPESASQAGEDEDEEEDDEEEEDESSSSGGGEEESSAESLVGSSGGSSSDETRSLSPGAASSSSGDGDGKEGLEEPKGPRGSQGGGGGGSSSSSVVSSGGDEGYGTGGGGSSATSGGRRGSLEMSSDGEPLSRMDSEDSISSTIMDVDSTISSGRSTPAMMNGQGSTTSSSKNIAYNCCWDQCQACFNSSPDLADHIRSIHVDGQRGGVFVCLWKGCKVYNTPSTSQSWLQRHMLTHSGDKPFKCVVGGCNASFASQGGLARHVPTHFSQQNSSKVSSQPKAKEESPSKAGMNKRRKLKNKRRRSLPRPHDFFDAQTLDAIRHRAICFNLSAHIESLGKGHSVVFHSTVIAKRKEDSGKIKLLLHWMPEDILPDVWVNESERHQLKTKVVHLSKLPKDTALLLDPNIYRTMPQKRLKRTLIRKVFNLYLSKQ
row,IC50 [nM],SMILES
1,100 to 1000,Cc1cc(C)c(CNC(=O)c2cc3cc(Br)cn3c(C(C)N3CCNCC3)c2C)c(=O)[nH]1 (stereo not shown) [Example 100]
2,< 100,"COc1cc(C)[nH]c(=O)c1CNC(=O)c1cc2c(-c3cnc(C)nc3)ccn2c(C(C)N2CCN(CC(F)(F)F)CC2)c1C (stereo not shown) [Compound 196, N-((4-methoxy-6-methyl-2-oxo-1,2-dihydropyridin-3-yl)methyl)-6-methyl-1-(2-methylpyrimidin-5-yl)-5-(1-(4-(2,2,2-trifluoroethyl)piperazin-1-yl)ethyl)indolizine-7-carboxamide]"
3,< 100,"COc1cc(C)[nH]c(=O)c1CNC(=O)c1cc2c(-c3ccnc(N(C)C)c3)ccn2c(C(C)N2CCN(CC(F)(F)F)CC2)c1C (stereo not shown) [Compound 170, 1-(2-(dimethylamino)pyridin-4-yl)-N-((4-methoxy-6-methyl-2-oxo-1,2-dihydropyridin-3-yl)methyl)-6-methyl-5-(1-(4-(2,2,2-trifluoroethyl)piperazin-1-yl)ethyl)indolizine-7-carboxamide]"
4,< 100,"CNc1cc(-c2ccn3c(C(C)N4CCN(CC(F)(F)F)CC4)c(C)c(C(=O)NCc4c(OC)cc(C)[nH]c4=O)cc23)ccn1 (stereo not shown) [Compound 180, N-((4-methoxy-6-methyl-2-oxo-1,2-dihydropyridin-3-yl)methyl)-6-methyl-1-(2-(methylamino)pyridin-4-yl)-5-(1-(4-(2,2,2-trifluoroethyl)piperazin-1-yl)ethyl)indolizine-7-carboxamide]"
5,< 100,"CCN(c1c(C)c(C(=O)NCc2c(C)cc(C)[nH]c2=O)cc2cc(-c3cn(C)cn3)cn12)C1CCOCC1 [Example 73, N-((4,6-dimethyl-2-oxo-1,2-dihydropyridin-3-yl)methyl)-5-(ethyl(tetrahydro-2H-pyran-4-yl)amino)-6-methyl-2-(1-methyl-1H-imidazol-4-yl)indolizin-7-carboxamide]"
6,100 to 1000,"COC1CCN(C(C)c2c(C)c(C(=O)NCc3c(C)cc(C)[nH]c3=O)cc3cc(Br)cn23)CC1 (stereo not shown) [Example 143, 2-Bromo-N-((4,6-dimethyl-2-oxo-1,2-dihydropyridin-3-yl)methyl)-6-methyl-5-(1-(4-methoxypiperidin-1-yl)ethyl)indolizine-7-carboxamide]"

row,SMILES,IC50 [nM]
1,"Cc1cc(C)c(CNC(=O)c2cc3cc(-c4cnn(C)c4)cn3c(C(C)N3CCOCC3)c2C)c(=O)[nH]1 (stereo not shown) [Example 42, N-((4,6-dimethyl-2-oxo-1,2-dihydropyridin-3-yl)methyl)-6-methyl-2-(1-methyl-1H-pyrazol-4-yl)-5-(1-morpholinylethyl)indolizine-7-carboxamide]",< 100
2,"Cc1cc(C)c(CNC(=O)c2cc3cc(-c4cccnc4)cn3c(C(C)N3CCC(N(C)C)CC3)c2C)c(=O)[nH]1 (stereo not shown) [Example 49, N-((4,6-dimethyl-2-oxo-1,2-dihydropyridin-3-yl)methyl)-5-(1-(4-(dimethylamino)piperidin-1-yl)ethyl)-6-methyl-2-(pyridin-3-yl)indolizine-7-carboxamide]",< 100

# Same assay, conditions: read-out: IC50 (EZH2_Y641F); EZH2 Y641F PRC2 complex, HTRF; class symbols
row,SMILES,IC50 [nM]
1,"COc1ccc(-c2cc3cc(C(=O)NCc4c(C)cc(C)[nH]c4=O)c(C)c(C(C)N4CCOCC4)n3c2)c(OC)c1 (stereo not shown) [Example 38, 2-(2,4-dimethoxyphenyl)-N-((4,6-dimethyl-2-oxo-1,2-dihydropyridin-3-yl)methyl)-6-methyl-5-(1-morphinolinylethyl)indolizine-7-carboxamide]",< 100
2,"COc1cc(C)[nH]c(=O)c1CNC(=O)c1cc2c(-c3ccc(C)nc3C)ccn2c([C@H](C)N2CCN(CC(F)(F)F)CC2)c1C (single isomer, unassigned) [Compound 177, (S)-1-(2,6-dimethylpyridin-3-yl)-N-((4-methoxy-6-methyl-2-oxo-1,2-dihydropyridine-3-yl)methyl)-6-methyl-5-(1-(4-(2,2,2-trifluoroethyl)piperazin-1-yl)ethyl)indolizine-7-carboxamide or (R) 1-(2,6-dimethylpyridin-3-yl)-N-((4-methoxy-6-methyl-2-oxo-1,2-dihydropyridine-3-yl)methyl)-6-methyl-5-(1-(4-(2,2,2-trifluoroethyl)piperazin-1-yl)ethyl)indolizine-7-carboxamide]",< 100
3,"COc1cc(-c2ccn3c([C@H](C)N4CCN(CC(F)(F)F)CC4)c(C)c(C(=O)NCc4c(OC)cc(C)[nH]c4=O)cc23)ccn1 (single isomer, unassigned) [Compound 194, (S)—N-((4-methoxy-6-methyl-2-oxo-1,2-dihydropyridin-3-yl)methyl)-1-(2-methoxypyridin-4-yl)-6-methyl-5-(1-(4-(2,2,2-trifluoroethyl)piperazin-1-yl)ethyl)indolizine-7-carboxamide or (R)—N-((4-methoxy-6-methyl-2-oxo-1,2-dihydropyridin-3-yl)methyl)-1-(2-methoxypyridin-4-yl)-6-methyl-5-(1-(4-(2,2,2-trifluoroethyl)piperazin-1-yl)ethyl)indolizine-7-carboxamide]",< 100
4,"COc1cccc(-c2ccn3c(C(C)N4CCOCC4)c(C)c(C(=O)NCc4c(C)cc(C)[nH]c4=O)cc23)c1 (stereo not shown) [Example 120, N-((4,6-dimethyl-2-oxo-1,2-dihydropyridin-3-yl)methyl)-6-methyl-5-(1-morpholinylethyl)-1-(3-methoxyphenyl)indolizine-7-amide]",< 100
5,COc1cc(-c2cc3cc(C(=O)NCc4c(C)cc(C)[nH]c4=O)c(C)c(C(C)OC)n3c2)cc(OC)c1OC (stereo not shown) [Compound 151],< 100
6,"COc1cc(C)[nH]c(=O)c1CNC(=O)c1cc2cc(-c3cncn3C)cn2c(C(C)N2CCC(N(C)C)CC2)c1C (stereo not shown) [Example 135, 5-(1-(4-(dimethylamino)piperidin-1-yl)ethyl)-N-((4-methoxy-6-methyl-2-oxo-1,2-dihydropyridin-3-yl)methyl)-6-methyl-2-(1-methyl-1H-imidazol-5-yl)indolizine-7-carboxamide]",< 100
7,CCN(c1c(C)c(C(=O)NCc2c(C)cc(C)[nH]c2=O)cc2cc(Br)cn12)C1CCOCC1 [Example 57],100 to 1000
8,"Cc1cc(C)c(CNC(=O)c2cc3cc(Br)cn3c(C(C)N3CCN(CCC(F)(F)F)CC3)c2C)c(=O)[nH]1 (stereo not shown) [Example 105, 2-bromo-N-((4,6-dimethyl-2-oxo-1,2-dihydropyridin-3-yl)methyl)-6-methyl-5-(1-(4-(3,3,3-trifluoropropyl)piperazin-1-yl)ethyl)indolizine-7-carboxamide]",1000 to 10000
9,"COc1cc(C)[nH]c(=O)c1CNC(=O)c1cc2c(-c3ccnc(N(C)C)c3)ccn2c([C@H](C)N2CCN(CC(F)(F)F)CC2)c1C (single isomer, unassigned) [Compound 171, (S)-1-(2-(dimethylamino)pyridin-4-yl)-N-((4-methoxy-6-methyl-2-oxo-1,2-dihydropyridine-3-yl)methyl)-6-methyl-5-(1-(4-(2,2,2-trifluoroethyl)piperazin-1-yl)ethyl)indolizine-7-carboxamide or (R) 1-(2-(dimethylamino)pyridin-4-yl)-N-((4-methoxy-6-methyl-2-oxo-1,2-dihydropyridine-3-yl)methyl)-6-methyl-5-(1-(4-(2,2,2-trifluoroethyl)piperazin-1-yl)ethyl)indolizine-7-carboxamide]",< 100
10,"Cc1cc(C)c(CNC(=O)c2cc3c(Br)ccn3c(C(C)N3CCOCC3)c2C)c(=O)[nH]1 (stereo not shown) [Example 53, N-((4,6-dimethyl-2-oxo-1,2-dihydropyridin-3-yl)methyl)-6-methyl-5-(1-morphinolinylethyl)-2-(4,5,6,7-tetrahydrothiazolo[5,4-c]pyridin-2-yl)indolizine-7-carboxamide]",< 100
11,Cc1cc(C)c(CNC(=O)c2cc3cc(C4=CCOCC4)cn3c(C(C)N3CCOCC3)c2C)c(=O)[nH]1 (stereo not shown) [Example 47],100 to 1000
12,"Cc1cc(C)c(CNC(=O)c2cc3cc(-c4ccn(C)n4)cn3c(C(C)N3CCOCC3)c2C)c(=O)[nH]1 (stereo not shown) [Example 85, N-((4,6-dimethyl-2-oxo-1,2-dihydropyridin-3-yl)methyl)-6-methyl-2-(1-methyl-1H-pyrazole-3-yl)-5-(1-morpholinoethyl)indolizine-7-carboxamide]",100 to 1000
13,"Cc1cc(C)c(CNC(=O)c2cc3cccn3c(C(C)OCc3ccncc3)c2C)c(=O)[nH]1 (stereo not shown) [Example 16, N-((4,6-dimethyl-2-oxo-1,2-dihydropyridin-3-yl)methyl)-6-methyl-5-(1-(pyridine-4-ylmethoxy)ethyl)indolizine-7-carboxamide]",100 to 1000
14,"Cc1cc(C)c(CNC(=O)c2cc3cc(-c4cc5c(s4)CCNC5)cn3c(C(C)N3CCOCC3)c2C)c(=O)[nH]1 (stereo not shown) [Example 114, N-((4,6-dimethyl-2-oxo-1,2-dihydropyridin-3-yl)methyl)-6-methyl-5-(1-morpholinoethyl)-2-(4,5,6,7-tetrahydro[2,3-c]pyridin-2-yl)indolizine-7-carboxamide]",100 to 1000
15,"COc1cc(C)[nH]c(=O)c1CNC(=O)c1cc2c(-c3ccc(C)nn3)ccn2c([C@H](C)N2CCN(CC(F)(F)F)CC2)c1C (single isomer, unassigned) [Compound 201, (S)—N-((4-methoxy-6-methyl-2-oxo-1,2-dihydropyridin-3-yl)methyl)-6-methyl-1-(6-methylpyridazin-3-yl)-5-(1-(4-(2,2,2-trifluoroethyl)piperazin-1-yl)ethyl)indolizine-7-formamide or (R)—N-((4-methoxy-6-methyl-2-oxo-1,2-dihydropyridin-3-yl)methyl)-6-methyl-1-(6-methylpyridazin-3-yl)-5-(1-(4-(2,2,2-trifluoroethyl)piperazin-1-yl)ethyl)indolizine-7-formamide]",< 100
16,"CCN(c1c(C)c(C(=O)NCc2c(C)cc(C)[nH]c2=O)cc2cc(Br)cn12)C1CCNCC1 [Example 61, 2-bromo-N-((4,6-dimethyl-2-oxo-1,2-dihydropyridin-3-yl)methyl)-5-(ethyl(piperidin-4-yl)amino)-6-methylindolizine-7-carboxamide]",100 to 1000

# Same assay, conditions: read-out: IC50 (EZH2_Y641F); EZH2 Y641F PRC2 complex, HTRF; numeric values
row,SMILES,IC50 [nM]
1,"COc1cc(C)[nH]c(=O)c1CNC(=O)c1cc2c(-c3cn[nH]c3)ccn2c(C(C)N2CCOCC2)c1C (stereo not shown) [Compound 152, N-((4-Methoxy-6-methyl-2-oxo-1,2-dihydropyridin-3-yl)methyl)-6-methyl-5-(1-morpholinylethyl)-1-(1H-pyrazol-4-yl)indolizine-7-carboxamide]",2.65

# — patent US10968215B2 (SHANGHAI HAIHE PHARMACEUTICAL CO., LTD., priority 2016, dated 2021)
